Reference: patent US7393839B2, “Polymorphic antiviral nucleoside compounds” (Roche Palo Alto LLC, priority 2003, dated 2008)
Counter-ions that a name gives are not always drawn.

Key:
[1] = Accelerated stability study (Form A): temperature, humidity, light; assay type: physicochemical
Procedure: Stability samples were evaluated for appearance, water content, chemical stability using an HPLC method and physical stability using DSC, specific rotation and x-ray powder diffraction methods. Photochemical stability was assessed by comparison with a control sample that was wrapped in aluminum foil and set side by side with the light sample in the light chamber.
DSC Thermograms were collected using a 2920 Modulated DSC from Thermal Analyzer (TA) Instruments. The heating rate was 10° C./min with a nitrogen purge maintained throughout the run.
Chromatography was carried out on a Zorbax SB-CN, 4.6×150 mm, 3.5 μm column. A ternary solvent gradient was used comprised of (A) water, (B) acetonitrile and (C) 200 mM heptane sulfonic acid sodium salt, monohydrate with 1% phosphoric acid in water. To prepare 500 mL of the solution, dissolve 22.0 g of 1-heptane sulfonic acid sodium salt, monohydrate in about 400 mL of water. Add 5 mL of phosphoric acid, 85% and then dilute to a volume of 500 mL with water and mix thoroughly. A flow rate of 1.0 mL/m was used. The column was run isocratically with 90% A and 10% C for 5 m. A linear gradient to 20% A, 70% B and 10% C was run over 20 m. This mixture was run isocratically for an addition 5 m after which the solvent was ramped back to 90% A and […] over 2 m followed by 8 m to reequilibrate the column. The column was maintained at 40° C.

Bulk and tap density = assay type: physicochemical
Procedure: The bulk density of Ib was determined Vanderkamp™ tap density tester, with an acoustic cabinet, or equivalent (Van-Kel Industries, Inc., 36 Meridian Road, Edison, N.J. 08820) apparatus following. Ib was passed through a 20 mesh. A powder funnel was placed on top of a cylinder and the powder was transferred rapidly in to the cylinder while avoiding agitation or tapping of the cylinder and the lower funnel. The sample weight in the cylinder was determined and the bulk density was calculated.
The tapped density was determined by measuring the volume of drug substance in a 25 mL graduated cylinder after 300 taps of a known amount of drug substance. The apparatus used was a VanderKamp Tapped Density Tester. The tapped density was calculated as the known weight of drug substance divided by the measured volume.

[2] = Thermal stability on modulated temperature x-ray diffractometer; assay type: physicochemical; conditions: for thermal stability of crystalline form: monohydrochloride
[3] = Physical stability of Form B on storage; assay type: physicochemical; conditions: ambient temperature, 25° C./60% RH, 30° C./60% RH, 40° C./75% RH, at least 4 weeks
From the text: The Form B-polymorph was crystallized from water and formed platelets (FIG. 3B). […] (FIG. 5B) corresponding to approximately one mole of water per mole of Ib.

Vacuum drying of Form B = assay type: physicochemical
HCV = conditions: unlike ribavirin; cited from earlier work
Th1 cytokine expression = conditions: antiviral Th1 cytokine expression; cited from earlier work
[4] = compared with ribavirin; cited from earlier work
[5] = Vapor sorption analysis (hygroscopicity); assay type: physicochemical
From the text: Vapor sorption analysis was used to assess the hygroscopicity of the Form A polymorph. The experiment was run in an isothermal mode and the sample weight recorded as the relative humidity was varied. During the adsorption phase Ib gained 0.5 wt % between 5% relative humidity (RH) and 85% RH. […] At the end of the analysis the sample was still solid and appeared to be crystalline. After the TGA analysis a portion of the sample was recovered and analyzed by DSC. The DSC thermograms of the starting material and of the material recovered following vapor sorption analysis were superimposable.
The experimental protocol was set up to dry the sample at 60° C. for a maximum of 1 h or until an equilibrium condition was reached which fluctuated less then 0.02 wt % in 5 min. The experiment was run isothermally at 25° C., and the %RH was increased from 5% to 95% in 10% increments. After each increment the sample held constant until equilibrium was reached. Equilibrium was defined as a per cent weight change of not more than 0.005 wt % in 5.00 minutes. After reaching 95% RH the RH was lowered back to 5% RH. If equilibrium was not reached within 2 hours, the %RH was advanced to the next programmed level.

[6] = heating from room temperature to 175° C.
[7] = Light Control (wrapped in aluminum foil), ICH Q1B

For `CC(C)C(N)C(=O)OC[C@@H]1O[C@H](n2cnc(C(N)=O)n2)[C@@H](O)[C@H]1O` (stereo partly drawn) [Ib, 2-(S)-amino-3-methyl-butyric acid 5S-(3-carbamoyl-[1,2,4]triazol-1-yl)-3R,4S-dihydroxy-tetrahydrofuran-2S-yl methyl ester, monohydrochloride], which “change in DSC thermograms, specific rotation, water content, x-ray diffraction pattern and purity” value ([1]; over the study period, all storage conditions) is on record?
Its value is “no discernable change”.

What about the bulk density (Bulk and tap density) of the same molecule?
The bulk density was 0.35 g/mL.

What about the tapped density (Bulk and tap density; after 300 taps) of the same molecule?
The tapped density was 0.58 g/mL.

With “2-(S)-amino-3-methyl-butyric acid 5S-(3-carbamoyl-[1,2,4]triazol-1-yl)-3R,4S-dihydroxy-tetrahydrofuran-2S-yl methyl ester, monohydrochloride [Form B]” as the molecule, how does the “crystalline form after heating and cooling” value ([2]; from 32° C. to 140° C.) read?
The value was “conversion of Form B into Form A”.

And the “temperature above which Form B was converted into Form A” value [2, 6]?
The value was “above 80 °C”.

And the “thermal stability of crystalline form” value [2, 6]?
The value was “unstable”.

And the “physical stability on storage” value [3]?
Its value is “physically stable”.

What about the “crystalline form after vacuum drying” value (Vacuum drying of Form B; at elevated temperature) of the same molecule?
The value was “conversion of Form B to Form A”.

And the “crystalline form after vacuum drying” value (Vacuum drying of Form B; in the absence of heat)?
Its value is “stable”.

What does the source list for `NC(=O)c1ncn([C@H]2O[C@@H](CO)[C@H](O)[C@@H]2O)n1` [Levovirin, 1-(3S,4R-dihydroxy-5S-hydroxymethyl-tetrahydro-furan-2S-yl)-1H-[1,2,4]triazole-3-carboxylic acid amide]?
direct antiviral activity (HCV): does not have direct detectable antiviral activity; immune response (Th1 cytokine expression): stimulates immune responses by enhancing antiviral Th1 cytokine expression; toxicity [4]: appears to lack toxicity associated with ribavirin

With “2-(S)-amino-3-methyl-butyric acid 5S-(3-carbamoyl-[1,2,4]triazol-1-yl)-3R,4S-dihydroxy-tetrahydrofuran-2S-yl methyl ester, monohydrochloride [Form A]” as the molecule, how does the “thermal stability of crystalline form” value [2, 6] read?
Its value is “did not change its crystalline form”.

And the “% Purity (ext. std)” value ([1]; 2–8° C., 3 months)?
The value was 99.9%.

And the Appearance ([1]; 2–8° C., 3 months)?
The Appearance was “White to off-white”.

And the “% Purity (ext. std)” value ([1]; 2–8° C., 4 weeks)?
Its value is 100.4%.

And the Appearance ([1]; 2–8° C., 4 weeks)?
The Appearance was “White crystalline”.

What about the “% Purity (ext. std)” value ([1]; 25° C. 60% RH, 3 months) of the same molecule?
The value was 99.8%.

And the Appearance ([1]; 25° C. 60% RH, 3 months)?
Its Appearance is “White to off-white”.

What about the “% Purity (ext. std)” value ([1]; 25° C. 60% RH, 4 weeks) of the same molecule?
The value was 100.2%.

What about the Appearance ([1]; 25° C. 60% RH, 4 weeks) of the same molecule?
Its Appearance is “White crystalline”.

What about the “% Purity (ext. std)” value ([1]; 30° C. 60% RH, 3 months) of the same molecule?
The value was 100.2%.

And the Appearance ([1]; 30° C. 60% RH, 3 months)?
Its Appearance is “White to off-white”.

And the “% Purity (ext. std)” value ([1]; 30° C. 60% RH, 4 weeks)?
The value was 100.7%.

What about the Appearance ([1]; 30° C. 60% RH, 4 weeks) of the same molecule?
Its Appearance is “White crystalline”.

And the “% Purity (ext. std)” value ([1]; 40° C. 75% RH, 3 months)?
Its value is 100.1%.

And the Appearance ([1]; 40° C. 75% RH, 3 months)?
The Appearance was “White to off-white”.

And the “% Purity (ext. std)” value ([1]; 40° C. 75% RH, 4 weeks)?
Its value is 100.6%.

And the Appearance ([1]; 40° C. 75% RH, 4 weeks)?
Its Appearance is “White crystalline”.

What about the “% Purity (ext. std)” value ([1]; 60° C., 3 months) of the same molecule?
Its value is 98.7%.

And the Appearance ([1]; 60° C., 3 months)?
The Appearance was “White to off-white”.

And the “% Purity (ext. std)” value ([1]; 60° C., 4 weeks)?
Its value is 100.8%.

What about the Appearance ([1]; 60° C., 4 weeks) of the same molecule?
The Appearance was “White crystalline”.

And the “% Purity (ext. std)” value [1, 7]?
Its value is 100.9%.

What about the Appearance [1, 7] of the same molecule?
The Appearance was “White crystalline”.

What about the “% Purity (ext. std)” value ([1]; Light, ICH Q1B) of the same molecule?
Its value is 100.9%.

What about the Appearance ([1]; Light, ICH Q1B) of the same molecule?
The Appearance was “White crystalline”.

What about the “% Purity (ext. std)” value ([1]; RT, Initial) of the same molecule?
Its value is 98.1%.

And the Appearance ([1]; RT, Initial)?
The Appearance was “White crystalline”.

What about the hygroscopicity ([5]; 5%-95%-5% RH cycle, 25° C.) of the same molecule?
The hygroscopicity was “not hygroscopic”.

And the “DSC thermograms of starting material and material recovered following vapor sorption analysis” value ([5]; after 5%-95%-5% RH cycle)?
The value was “superimposable”.

And the “weight gained during adsorption phase” value ([5]; between 5% RH and 85% RH, isothermal 25° C.)?
The value was 0.5 wt %.

And the “weight increase during adsorption phase” value ([5]; between 85% and 95% RH, isothermal 25° C.)?
Its value is under 2.5 weight percent.

And the “weight change during desorption phase” value ([5]; same %RH ranges, desorption)?
The value was “virtually all of the weight gained in the adsorption phase was lost”.
